The results in this text go back to patent US20240059671A1, “TYROSINE KINASE 2 (TYK2) DEGRADATION COMPOUNDS AND METHODS OF USE” (CULLGEN (SHANGHAI), INC., priority 2020, published 2024).

The experiment concerns the target TYK2 (Homo sapiens, UniProt P29597). The experiment can be described thus: TYK2 protein degradation in MOLT-4 cells by immunoblotting. More on the design: endogenous in cells; host or cells: MOLT-4. Type of experiment: cell-based. The settings on record: MOLT-4 cells, 24 hours. As to the method:
MOLT-4 cells were treated with compounds at 0.5 and 5 μM concentrations for 24 hours.
MOLT-4 cells were treated with CPD-038, CPD-039, and CPD-040 at 0.04, 0.2, 1, and 5 μM concentrations for 24 hours.
MOLT-4 or NOMO-1 cells were cultured at 37° C. with 5% CO2 in RPMI 1640 Medium supplemented with 10% fetal bovine serum. Cells were authenticated using the short tandem repeat (STR) assays. Mycoplasma test results were negative.
Cultured cells were washed with cold PBS once and lysed in cold RIPA buffer supplemented with protease inhibitors and phosphatase inhibitors (Beyotime Biotechnology). The solutions were then incubated at 4° C. for 30 minutes with gentle agitation to fully lyse cells. Cell lysates were centrifuged at 13,000 rpm for 10 minutes at 4° C. and pellets were discarded. Total protein concentrations in the lysates were determined by BCA assays (Beyotime Biotechnology). Cell lysates were mixed with Laemmli loading buffer to 1× and heated at 99° C. for 5 min. Proteins were resolved on SDS-PAGE and visualized by chemiluminescence. Images were taken by a ChemiDoc MP Imaging system (Bio-Rad). Protein bands were quantitated using the accompanied software provided by Bio-Rad.
The percentage of TYK2 protein degradation of each compound at 0.5 and 5 μM determined in MOLT-4 cells as described in Methods.
(A western blot detects proteins with antibodies after separation by electrophoresis.)

Bounds are passed on as bounds.

Sequence of TYK2 (P29597 whole entry): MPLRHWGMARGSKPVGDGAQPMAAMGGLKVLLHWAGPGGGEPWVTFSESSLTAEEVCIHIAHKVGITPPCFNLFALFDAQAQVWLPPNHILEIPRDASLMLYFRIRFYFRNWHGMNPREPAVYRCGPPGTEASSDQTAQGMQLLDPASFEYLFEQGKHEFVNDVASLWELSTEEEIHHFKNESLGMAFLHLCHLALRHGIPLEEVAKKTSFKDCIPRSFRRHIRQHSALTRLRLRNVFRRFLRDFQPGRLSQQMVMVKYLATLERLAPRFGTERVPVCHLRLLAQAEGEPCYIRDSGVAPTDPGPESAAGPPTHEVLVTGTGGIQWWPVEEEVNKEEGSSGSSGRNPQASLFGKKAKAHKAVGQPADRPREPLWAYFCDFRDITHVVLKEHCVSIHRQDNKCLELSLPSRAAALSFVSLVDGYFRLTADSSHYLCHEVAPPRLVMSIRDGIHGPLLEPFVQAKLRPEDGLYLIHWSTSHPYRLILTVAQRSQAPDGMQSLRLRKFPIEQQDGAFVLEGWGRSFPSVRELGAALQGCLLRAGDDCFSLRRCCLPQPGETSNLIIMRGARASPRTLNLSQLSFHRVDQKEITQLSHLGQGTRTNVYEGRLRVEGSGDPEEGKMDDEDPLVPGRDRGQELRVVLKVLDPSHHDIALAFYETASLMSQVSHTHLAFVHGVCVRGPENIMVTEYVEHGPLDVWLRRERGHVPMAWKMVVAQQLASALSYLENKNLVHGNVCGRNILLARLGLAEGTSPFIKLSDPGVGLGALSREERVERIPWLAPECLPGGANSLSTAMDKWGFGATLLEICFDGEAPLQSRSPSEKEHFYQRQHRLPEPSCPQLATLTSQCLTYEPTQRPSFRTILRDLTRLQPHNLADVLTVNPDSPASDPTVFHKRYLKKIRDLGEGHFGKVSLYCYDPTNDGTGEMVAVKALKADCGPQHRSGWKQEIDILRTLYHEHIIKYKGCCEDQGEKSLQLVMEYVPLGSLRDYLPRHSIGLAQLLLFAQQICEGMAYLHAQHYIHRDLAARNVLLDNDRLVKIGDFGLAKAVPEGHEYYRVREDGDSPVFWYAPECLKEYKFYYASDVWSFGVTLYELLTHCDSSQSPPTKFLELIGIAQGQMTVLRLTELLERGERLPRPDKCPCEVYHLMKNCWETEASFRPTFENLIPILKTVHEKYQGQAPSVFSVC

As for `CNC(=O)c1nnc(NC(=O)CNC(=O)COCCOCCOCC(=O)N[C@H](C(=O)N2C[C@H](O)C[C@H]2C(=O)NCc2ccc(-c3scnc3C)cc2)C(C)(C)C)cc1Nc1cccc(-c2ncn(C)n2)c1OC` [CPD-029, 6-((S)-16-((2S,4R)-4-Hydroxy-2-((4-(4-methylthiazol-5-yl)benzyl)carbamoyl)pyrrolidine-1-carbonyl)-17,17-dimethyl-4,14-dioxo-6,9,12-trioxa-3,15-diazaoctadecanamido)-4-((2-methoxy-3-(1-methyl-1H-1,2,4-triazol-3-yl)phenyl)amino)-N-methylpyridazine-3-carboxamide], the “TYK2 Degradation (0.5 μM)” value was at most 20% and the “TYK2 Degradation (5 μM)” value is recorded as at most 20%.
Turning to `CNC(=O)c1nnc(NC(=O)CNC(=O)CCOCCOCCOCCC(=O)N[C@H](C(=O)N2C[C@H](O)C[C@H]2C(=O)NCc2ccc(-c3scnc3C)cc2)C(C)(C)C)cc1Nc1cccc(-c2ncn(C)n2)c1OC` [CPD-030, 6-((S)-18-((2S,4R)-4-Hydroxy-2-((4-(4-methylthiazol-5-yl)benzyl)carbamoyl)pyrrolidine-1-carbonyl)-19,19-dimethyl-4,16-dioxo-7,10,13-trioxa-3,17-diazaicosanamido)-4-((2-methoxy-3-(1-methyl-1H-1,2,4-triazol-3-yl)phenyl)amino)-N-methylpyridazine-3-carboxamide], the “TYK2 Degradation (0.5 μM)” value is at most 20% and the “TYK2 Degradation (5 μM)” value was at most 20%.
Regarding `CNC(=O)c1nnc(NC(=O)CNC(=O)CCOCCOCCOCCOCCC(=O)N[C@H](C(=O)N2C[C@H](O)C[C@H]2C(=O)NCc2ccc(-c3scnc3C)cc2)C(C)(C)C)cc1Nc1cccc(-c2ncn(C)n2)c1OC` [CPD-031, N^1—((S)-1-((2S,4R)-4-Hydroxy-2-((4-(4-methylthiazol-5-yl)benzyl)carbamoyl)pyrrolidin-1-yl)-3,3-dimethyl-1-oxobutan-2-yl)-N^16-(2-((5-((2-methoxy-3-(1-methyl-1H-1,2,4-triazol-3-yl)phenyl)amino)-6-(methylcarbamoyl)pyridazin-3-yl)amino)-2-oxoethyl)-4,7,10,13-tetraoxahexadecanediamide], the “TYK2 Degradation (0.5 μM)” value is given as at most 20% and the “TYK2 Degradation (5 μM)” value is listed as at most 20%.
Turning to `CNC(=O)c1nnc(NC(=O)CNC(=O)COCCOCCOCCOCCOCC(=O)N[C@H](C(=O)N2C[C@H](O)C[C@H]2C(=O)NCc2ccc(-c3scnc3C)cc2)C(C)(C)C)cc1Nc1cccc(-c2ncn(C)n2)c1OC` [CPD-032, N^1—((S)-1-((2S,4R)-4-Hydroxy-2-((4-(4-methylthiazol-5-yl)benzyl)carbamoyl)pyrrolidin-1-yl)-3,3-dimethyl-1-oxobutan-2-yl)-N^17-(2-((5-((2-methoxy-3-(1-methyl-1H-1,2,4-triazol-3-yl)phenyl)amino)-6-(methylcarbamoyl)pyridazin-3-yl)amino)-2-oxoethyl)-3,6,9,12,15-pentaoxaheptadecanediamide], the “TYK2 Degradation (0.5 μM)” value is reported as at most 20% and the “TYK2 Degradation (5 μM)” value is at most 20%.
Turning to `CNC(=O)c1nnc(NC(=O)CNC(=O)CCOCCOCCOCCOCCOCCC(=O)N[C@H](C(=O)N2C[C@H](O)C[C@H]2C(=O)NCc2ccc(-c3scnc3C)cc2)C(C)(C)C)cc1Nc1cccc(-c2ncn(C)n2)c1OC` [CPD-033, N^1—((S)-1-((2S,4R)-4-Hydroxy-2-((4-(4-methylthiazol-5-yl)benzyl)carbamoyl)pyrrolidin-1-yl)-3,3-dimethyl-1-oxobutan-2-yl)-N^19-(2-((5-((2-methoxy-3-(1-methyl-1H-1,2,4-triazol-3-yl)phenyl)amino)-6-(methylcarbamoyl)pyridazin-3-yl)amino)-2-oxoethyl)-4,7,10,13,16-pentaoxanonadecanediamide], the “TYK2 Degradation (0.5 μM)” value was at most 20% and the “TYK2 Degradation (5 μM)” value is given as at most 20%.
